This note sets out measurements from PubChem BioAssay (NCI).

Some test systems named below: SNB-75 CNS; SK-OV-3 ovarian; SF-539 CNS; UO-31 renal; NCI/ADR-RES ovarian; IGROV1 ovarian; HOP-62 NSCLC; OVCAR-8 ovarian; NCI-H522 lung; KM12 colon.
What all share (assay): NCI tumour cell line growth inhibition, 48 h

Molecules are shown by their SMILES. Where “and” joins values, the source holds several entries; their conditions need not be identical. Identical values can stand only once.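 Results reflect a 48-hour exposure of cells in 96-well plates to compound at five concentrations. Abbreviation: GI50, concentration required for 50% inhibition of growth. At the TGI there is no net growth.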

Take `COc1cc(C(=O)c2cnc(-c3c[nH]c4cccc(C)c34)[nH]2)cc(OC)c1OC`: the GI50 in the assay on SNB-75 CNS was 0.00257 µM; with SK-OV-3 ovarian, 0.0065 µM; with SF-539 CNS, 0.00289 µM; in the assay on UO-31 renal, 0.00965 µM; in the assay with NCI/ADR-RES ovarian, 0.0123 µM; in the assay with IGROV1 ovarian, 0.00842 µM and 0.0168 µM. The GI50 is 0.00809 µM in the assay on HOP-62 NSCLC, 0.0078 µM in the assay with OVCAR-8 ovarian and 0.00482 µM with KM12 colon. Further, the TGI is 36.8 µM with SNB-75 CNS; 2.5 µM in the assay with SK-OV-3 ovarian; 0.00874 µM with SF-539 CNS; 14.7 µM with UO-31 renal; above 100 µM with IGROV1 ovarian; 55.9 µM with HOP-62 NSCLC. The figures for the TGI with OVCAR-8 ovarian, in the assay with NCI-H522 lung and with KM12 colon were 43.2 µM, 0.0224 µM and above 100 µM, respectively.

Regarding `O=C(/C=C/c1ccc(O)c(O)c1)N1CCN(c2ccc(Cl)cc2)CC1`, the GI50 with SNB-75 CNS was 2.93 µM; with SK-OV-3 ovarian, 10.1 µM; in the assay with SF-539 CNS it was 4.4 µM; in the assay with UO-31 renal, 2.08 µM; in the assay on NCI/ADR-RES ovarian, 4.61 µM; in the assay with IGROV1 ovarian, 4.5 µM. Besides, the GI50 is 7.77 µM in the assay with HOP-62 NSCLC, 5.46 µM with OVCAR-8 ovarian, 1.83 µM with NCI-H522 lung and 7.65 µM with KM12 colon. The TGI with SNB-75 CNS came out at 30.2 µM; with SK-OV-3 ovarian, 67.7 µM; with SF-539 CNS it was 21.1 µM; with UO-31 renal it was 20.1 µM; in the assay with NCI/ADR-RES ovarian it was 32.9 µM; in the assay on IGROV1 ovarian, 80.5 µM. The TGI was determined as 35.1 µM in the assay with HOP-62 NSCLC, 44.4 µM in the assay on OVCAR-8 ovarian, 12.6 µM in the assay with NCI-H522 lung and 26.6 µM in the assay on KM12 colon.

Consider `C=CCC(N[C@@H](CO)c1ccccc1)c1ccc2ccccc2n1` (stereo not given in full), for which the GI50 in the assay with SNB-75 CNS was 51.2 µM; in the assay on SK-OV-3 ovarian, above 100 µM; with SF-539 CNS, above 100 µM; in the assay with UO-31 renal, 88.2 µM; in the assay on NCI/ADR-RES ovarian it was above 100 µM; with IGROV1 ovarian, 29.9 µM. Also, the GI50 with HOP-62 NSCLC is above 100 µM; in the assay on OVCAR-8 ovarian, above 100 µM; with NCI-H522 lung it was 64.6 µM; with KM12 colon, above 100 µM. Besides, the TGI in the assay with SNB-75 CNS, in the assay on SK-OV-3 ovarian, with SF-539 CNS, with UO-31 renal, with NCI/ADR-RES ovarian and in the assay on IGROV1 ovarian was above 100 µM throughout. The TGI in the assay with HOP-62 NSCLC, in the assay on OVCAR-8 ovarian, in the assay with NCI-H522 lung and in the assay on KM12 colon was above 100 µM throughout.

As to `CCn1c(-c2nonc2N)nc2ccccc21`, the GI50 in the assay with SNB-75 CNS, in the assay on SK-OV-3 ovarian, in the assay with SF-539 CNS, in the assay with UO-31 renal, with NCI/ADR-RES ovarian and in the assay on IGROV1 ovarian was above 25 µM each time. Moreover, the GI50 in the assay with HOP-62 NSCLC, in the assay with OVCAR-8 ovarian, in the assay on NCI-H522 lung and in the assay on KM12 colon was above 25 µM each time. Further, the TGI in the assay with SNB-75 CNS, in the assay with SK-OV-3 ovarian, in the assay with SF-539 CNS, with UO-31 renal, in the assay on NCI/ADR-RES ovarian and in the assay on IGROV1 ovarian was above 25 µM in each case. Also, the TGI in the assay with HOP-62 NSCLC, in the assay with OVCAR-8 ovarian, in the assay with NCI-H522 lung and in the assay with KM12 colon was above 25 µM each time.

As for `O=C1CCC(c2ccccc2)=NN1c1nc2ccccc2s1`, the TGI was above 79.4 µM in the assay with SNB-75 CNS; 79.6 µM in the assay on SK-OV-3 ovarian; above 63.7 µM in the assay on SF-539 CNS; above 100 µM with UO-31 renal; 76.6 µM in the assay on NCI/ADR-RES ovarian; above 100 µM in the assay with IGROV1 ovarian. The TGI was above 100 µM in the assay on HOP-62 NSCLC, above 100 µM in the assay on OVCAR-8 ovarian, 59 µM with NCI-H522 lung and above 100 µM in the assay with KM12 colon.

Turning to `O=C1C(Cl)=C(Nc2ccc(S(=O)(=O)c3ccc(NC4=C(Cl)C(=O)c5ccccc5C4=O)cc3)cc2)C(=O)c2ccccc21`, the GI50 is 1.04 µM in the assay on SNB-75 CNS; 2.4 µM in the assay with SK-OV-3 ovarian; 1.91 µM in the assay on SF-539 CNS; 1.38 µM with UO-31 renal; 3.68 µM with NCI/ADR-RES ovarian; 2.14 µM in the assay with HOP-62 NSCLC. The GI50 in the assay on KM12 colon was 2.17 µM. The TGI in the assay with SNB-75 CNS was 2.33 µM; with SK-OV-3 ovarian, 7.94 µM; in the assay with SF-539 CNS, 3.71 µM; in the assay with UO-31 renal, 2.85 µM; with NCI/ADR-RES ovarian, 35.2 µM; in the assay on HOP-62 NSCLC, 6.52 µM. In the assay with KM12 colon, the TGI was determined as 5.38 µM.

Regarding `CCCCNc1ncnc2c1cnn2-c1ccccc1`, the GI50 is 2.11 µM with SNB-75 CNS; 3.2 µM in the assay with SK-OV-3 ovarian; 4.05 µM with SF-539 CNS; 7.44 µM in the assay with UO-31 renal; 0.514 µM in the assay with NCI/ADR-RES ovarian; 2.22 µM with IGROV1 ovarian. The GI50 with HOP-62 NSCLC was 3.42 µM; in the assay with OVCAR-8 ovarian, 4.62 µM; with NCI-H522 lung it was 0.799 µM; in the assay on KM12 colon it was 0.474 µM. For the same compound, the TGI in the assay on SNB-75 CNS was 39.9 µM; in the assay on SK-OV-3 ovarian it was 31.2 µM; with SF-539 CNS, above 100 µM; in the assay on UO-31 renal, 71.2 µM; with NCI/ADR-RES ovarian it was 5.26 µM; with IGROV1 ovarian it was above 100 µM. In addition, the TGI with HOP-62 NSCLC is above 100 µM; in the assay on OVCAR-8 ovarian, above 88.1 µM; with NCI-H522 lung, 9.94 µM; in the assay with KM12 colon, 27.2 µM.

Regarding `C/C=C/C=C/c1cc2cc3c(c(O)c2c(=O)[nH]1)C1(CC3)C(O)=c2c(=O)c3c(=O)cc(OC)c(=O)c=3c(=O)c2=C1O` (stereo not given), the GI50 is 0.0567 µM and 0.545 µM with SNB-75 CNS; 0.363 µM and 2.33 µM with SF-539 CNS; 0.17 µM and 1.37 µM with UO-31 renal; 0.327 µM and 1.15 µM in the assay on HOP-62 NSCLC; 0.145 µM and 0.902 µM in the assay on OVCAR-8 ovarian. The TGI with SNB-75 CNS was 0.511 µM and 1.72 µM; in the assay with SK-OV-3 ovarian it was 16 µM and 8.75 µM; with SF-539 CNS it was 2.48 µM and 10.6 µM; with UO-31 renal, 16.3 µM and 9.83 µM; in the assay with NCI/ADR-RES ovarian, 37.9 µM; in the assay with IGROV1 ovarian, 10.6 µM and 15.3 µM. Also, the TGI in the assay with HOP-62 NSCLC is 4.49 µM and 8.28 µM; in the assay with OVCAR-8 ovarian, 5.15 µM and 15.5 µM; in the assay on KM12 colon, 16.5 µM.

On to `O=[N+]([O-])c1cccc(/C=N/Nc2ccc3ccccc3n2)c1O`, for which the TGI with SK-OV-3 ovarian is 11.1 µM; in the assay on SF-539 CNS, 8.91 µM; in the assay on UO-31 renal it was 3 µM; with NCI/ADR-RES ovarian, 3.5 µM; in the assay with IGROV1 ovarian, above 42.7 µM; in the assay on HOP-62 NSCLC, 8.9 µM. In addition, the TGI with OVCAR-8 ovarian was above 39 µM; with NCI-H522 lung, 7.52 µM; in the assay with KM12 colon, 32.9 µM.
